The supplement of paper PMC10307832

Tests used:
Experiment in all cases: relative viability (nuclei count vs DMSO), 5 days (fraction); higher = more cells survive
ALW-II-49-7 = compound: Cc1ccc(C(=O)Nc2cccc(C(F)(F)F)c2)cc1Nc1cncc(C(N)=O)c1 [ALW-II-49-7]
In short: (§1)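 Only plates meeting two conditions passed: control CV below 25% and at least one doubling. Lung cancer cell lines, kept overnight at 37 °C in 1536-well plates, were pinned with five library-drug doses (not always all listed) √10 apart on vehicle-anchored plates and grown 5 days without medium change. A one-step fix, permeabilisation and Hoechst stain preceded 4× imaging and MetaXpress nuclear counting. Viability equals treated-well nuclei divided by vehicle-well nuclei, as the median over plates.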

Dasatinib = compound: Cc1nc(Nc2ncc(C(=O)Nc3c(C)cccc3Cl)s2)cc(N2CCN(CCO)CC2)n1 [Dasatinib]
In short: as §1

XMD13-2 = compound: C1CC1C(=O)NC2=NNC3=C2C=CC(=C3)C4=CC(=CC=C4)C(=O)NC5CC5 [XMD13-2]
In short: as §1

Cell Line	relative viability (ALW-II-49-7; 0.08 µM)	relative viability (ALW-II-49-7; 0.253 µM)	relative viability (ALW-II-49-7; 0.8 µM)	relative viability (ALW-II-49-7; 2.53 µM)	relative viability (ALW-II-49-7; 8 µM)	relative viability (Dasatinib; 0.005 µM)	relative viability (Dasatinib; 0.01581 µM)	relative viability (Dasatinib; 0.05 µM)	relative viability (Dasatinib; 0.1581 µM)	relative viability (Dasatinib; 0.5 µM)	relative viability (XMD13-2; 0.05 µM)	relative viability (XMD13-2; 0.1581 µM)	relative viability (XMD13-2; 0.5 µM)	relative viability (XMD13-2; 1.581 µM)	relative viability (XMD13-2; 5 µM)	relative viability (Dasatinib; 0.075 µM, anchor plate)
IA-LM	0.939	0.74	0.744	0.504	0.305	1.01	0.994	1	0.781	0.564	0.967	0.982	0.977	0.87	0.883	
LC-2-ad	0.942	1.03	0.922	1.08	0.861	1	0.984	0.924	0.674	0.35	1.03	1.04	1.03	0.94	0.994	0.601
LCLC-97TM1	0.97	0.905	1.09	0.755	0.865	1.17	0.97	1.05	1	0.561	0.974	0.917	0.95	0.7	0.903	0.837
LCLC-103H	0.983	0.987	0.971	0.953	0.969	0.997	0.855	0.82	0.669	0.382	1.09	0.997	0.969	0.987	1.05	0.475
LK-2	1.03	0.971	1		0.926	0.943	0.569	0.587	0.297	0.257	1.24	0.904	1.05	0.915	0.966	0.311
LOU-NH91	0.939	1.03	0.951	0.654	0.837	0.839	0.893	0.724	0.587	0.422	1.12	0.979	0.965	0.85	1.15	0.558
LU99A	0.816	1.1	0.902	0.94	0.95	0.807	0.629	0.896	0.663	0.48	1.05	1.05	1.01	1.03	0.927	0.539
LXF-289	0.931	1.04	1.02	1.06	1.05	1.03	1.07	1.08	0.485	0.226	1.07	1.02	1.04	1.07	1.05	0.227
NCI-H23	0.936	0.978	0.907	1.06	0.865	0.923	0.857	0.858	0.6	0.482	1.04	0.907	1.04	0.801	1.07	0.866
NCI-H322M	0.879	1.08	0.957	0.906	0.805	0.892	0.827	0.526	0.319	0.216	1.05	0.918	0.893	0.911	1.08	0.257
NCI-H358	0.891	0.956	0.924	1.01	1.07	0.867	0.695	0.593	0.248	0.163	1.18	0.918	1.06	0.928	0.704	0.165
NCI-H441	1.2	0.868	0.913	0.902	0.762	1.03	0.997	1.11	0.636	0.338	1.19	1.08	0.968	0.96	0.771	0.675
NCI-H460	1	1.07	0.944	1.02	0.882	0.949	0.897	0.856	0.73	0.605	1.06	1.01	1.06	1.01	0.982	0.529
NCI-H520	1.04	0.987	0.987	0.94	0.964	0.785	0.592	0.518	0.257	0.243	1.09	1.09	1.08	0.851	0.643	0.21
NCI-H522	0.968	0.938	0.994	1.2	1.03	0.964	0.829	0.801	0.768	0.758	1.08	1.03	0.935	0.918	0.745	0.904
NCI-H596	0.913	0.988	0.941	0.893	0.829	0.978	0.788	0.736	0.551	0.453	1.03	1.02	0.944	1.03	1.12	0.631
NCI-H647	0.904	0.944	0.926	0.967	0.795	0.76	0.572	0.372	0.227	0.207	1.12	1.05	1.06	1.03	0.747	0.199
NCI-H650	0.992	0.997	0.841	1.03	0.647	0.876	0.936	0.861	0.712	0.5	1.1	0.963	1.04	0.845	1.03	0.475
NCI-H661	1.04	0.936	0.927	0.975	0.901	0.955	1.06	0.911	0.8	0.661	0.971	1.04	0.971	0.976	0.844	0.974
NCI-H727	1.09	0.907	0.9	0.902	0.855	0.724	0.678	0.53	0.388	0.256	1.06	0.892	0.973	0.947	1.04	0.37
NCI-H838	0.945	0.901	0.903	0.982	0.918	0.87	0.676	0.532	0.38	0.289	1.11	0.962	1.01	0.998	1.07	0.307
